Here are results for 28 compounds from the supplement of paper PMC7600603.

For assay [1], the system named is DLD1 NRF2-WT. In words: drug sensitivity score (DSS) cytotoxicity (DSS score); higher = more toxic; extreme values may be limits of the assay. Particulars: 72 h; CellTox Green cytotoxicity. Put shortly:
(§1)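 After growth in DMEM with 10% FBS, NRF2 wild-type and CRISPR-edited isogenic DLD1 cells were seeded in 384-well plates and given library compounds at 5 concentrations across a 10,000-fold range. Fluorescence from CellTox Green was taken on a Pherastar FS reader after 72 h and normalised against vehicle wells and 100-μM positive-control wells. From logistic dose-response fits of cytotoxicity came the TC50 and the drug sensitivity score, a normalised area under the curve.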

Assay [2] concerns DLD1 NRF2-GOF. Described as above. Conditions: 72 h; CellTox Green cytotoxicity. Put shortly:
as §1

For assay [3], the system named is DLD1 NRF2-WT. In words: TC50 cytotoxicity; higher = less toxic. Particulars: 72 h; CellTox Green cytotoxicity. The procedure, abridged:
as §1

The test system of assay [4] is DLD1 NRF2-GOF. The experiment in a line: TC50 cytotoxicity; higher = less toxic. Particulars: 72 h; CellTox Green cytotoxicity. The procedure, abridged:
as §1

The subject of assay [5] is DLD1 NRF2-WT. Conditions: 72 h; CellTiter-Glo viability. Put shortly: (§2)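 DLD1 colorectal cancer cells, an isogenic pair either NRF2 wild-type or carrying a CRISPR gain-of-function, were cultured in DMEM with 10% FBS and treated in 384-well plates with library compounds at 5 concentrations across a 10,000-fold range. CellTiter-Glo viability was read on a Pherastar FS reader after 72 h and normalised to vehicle wells and 100-μM positive-control wells. Four-parameter logistic dose-response fits were applied. EC50 and drug sensitivity score, a normalised area under the curve, were taken from these fits.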
Background: Cellular ATP, detected with luciferase, serves as a proxy for viable cell number.

Assay [6] has as its system DLD1 NRF2-WT. In words: drug sensitivity score (DSS) viability (DSS score); higher = more sensitive; extreme values may be limits of the assay. Particulars: 72 h; CellTiter-Glo viability. The procedure, abridged: as §2

For `NC(=S)N/N=C/c1ncccc1N` [Triapine], the drug sensitivity score in the assay on DLD1 NRF2-WT [1] and with DLD1 NRF2-GOF [2] was 0 throughout. For the same compound, the TC50 cytotoxicity in the assay on DLD1 NRF2-WT [3] and with DLD1 NRF2-GOF [4] was greater than 10 µM throughout.
Regarding `Oc1nc(-c2ccc(C(F)(F)F)cc2)nc2c1CSCC2` [XAV-939], the drug sensitivity score with DLD1 NRF2-WT [1] and in the assay on DLD1 NRF2-GOF [2] was 0 each time. Besides, the TC50 cytotoxicity in the assay on DLD1 NRF2-WT [3] and with DLD1 NRF2-GOF [4] was greater than 10 µM in each case.
Regarding `CN1CC[C@@H](NC(=O)Nc2ccc(C#N)cc2)C[C@@H]1c1nc2ccccc2[nH]1` [Glasdegib], the drug sensitivity score with DLD1 NRF2-WT [1] and in the assay on DLD1 NRF2-GOF [2] was 0 in each case. In addition, the TC50 cytotoxicity in the assay with DLD1 NRF2-WT [3] and in the assay on DLD1 NRF2-GOF [4] was greater than 1 µM in each case.
For `Cc1cc2c(C(=O)NC[C@H](C)c3ccccc3)c(O)c(O)cc2c(O)c1-c1c(C)cc2c(C(=O)NC[C@H](C)c3ccccc3)c(O)c(O)cc2c1O` [Sabutoclax], the drug sensitivity score with DLD1 NRF2-WT [1] and with DLD1 NRF2-GOF [2] was 0 throughout. Moreover, the TC50 cytotoxicity in the assay on DLD1 NRF2-WT [3] and in the assay with DLD1 NRF2-GOF [4] was greater than 25 µM throughout.
For `Cn1cnc2c(F)c(Nc3ccc(Br)cc3F)c(C(=O)NOCCO)cc21` [Binimetinib], the drug sensitivity score in the assay with DLD1 NRF2-WT [1] and in the assay on DLD1 NRF2-GOF [2] was 0 each time. Moreover, the TC50 cytotoxicity in the assay with DLD1 NRF2-WT [3] and in the assay on DLD1 NRF2-GOF [4] was greater than 1 µM each time.
Take `CC(C)(O)CNc1nc(Nc2ccnc(C(F)(F)F)c2)nc(-c2cccc(C(F)(F)F)n2)n1` [Enasidenib]: the drug sensitivity score in the assay with DLD1 NRF2-WT [1] and in the assay with DLD1 NRF2-GOF [2] was 0 in each case. The TC50 cytotoxicity in the assay with DLD1 NRF2-WT [3] and in the assay with DLD1 NRF2-GOF [4] was greater than 10 µM throughout.
Consider `CN1CCN(c2ccc(C(=O)Nc3n[nH]c4ccc(Cc5cc(F)cc(F)c5)cc34)c(NC3CCOCC3)c2)CC1` [Entrectinib], for which the drug sensitivity score in the assay on DLD1 NRF2-WT [1] and in the assay on DLD1 NRF2-GOF [2] was 0 in each case. In addition, the TC50 cytotoxicity in the assay with DLD1 NRF2-WT [3] and in the assay with DLD1 NRF2-GOF [4] was greater than 1 µM each time.
As to `CC[C@@H](C(=O)[C@@H](C)[C@@H](O)[C@H](C)[C@@H]1O[C@@H]([C@@H](CC)C(=O)O)CC[C@@H]1C)[C@H]1O[C@]2(C=C[C@@H](O)[C@]3(CC[C@@](C)([C@H]4CC[C@](O)(CC)[C@H](C)O4)O3)O2)[C@H](C)C[C@@H]1C` [Salinomycin], the drug sensitivity score in the assay on DLD1 NRF2-WT [1] was 0.2; with DLD1 NRF2-GOF [2], 0. Besides, the TC50 cytotoxicity with DLD1 NRF2-WT [3] and in the assay with DLD1 NRF2-GOF [4] was greater than 50 µM each time.
As for `COc1nc(N)nc2c1ncn2[C@@H]1O[C@H](CO)[C@@H](O)[C@@H]1O` [Nelarabine], the drug sensitivity score with DLD1 NRF2-WT [1] and in the assay with DLD1 NRF2-GOF [2] was 0 each time. Moreover, the TC50 cytotoxicity in the assay on DLD1 NRF2-WT [3] and with DLD1 NRF2-GOF [4] was greater than 10 µM each time.
`Nc1nc2cc(-c3ccc4ncc(C(=O)N5CCOCC5)n4c3)ccc2o1` [MLN1117]: the drug sensitivity score in the assay with DLD1 NRF2-WT [1] and with DLD1 NRF2-GOF [2] was 0 in each case. The TC50 cytotoxicity in the assay on DLD1 NRF2-WT [3] and in the assay with DLD1 NRF2-GOF [4] was greater than 10 µM in each case.
`COc1cc2ncnc(Nc3cccc(Cl)c3F)c2cc1OC(=O)N1CCN(C)C[C@H]1C` [AZD3759]: the drug sensitivity score with DLD1 NRF2-WT [1] and in the assay with DLD1 NRF2-GOF [2] was 0 throughout. Moreover, the TC50 cytotoxicity in the assay with DLD1 NRF2-WT [3] and in the assay with DLD1 NRF2-GOF [4] was greater than 1 µM in each case.
In the assay on DLD1 NRF2-WT [5], `CC(C)c1c(C(=O)Nc2ccccc2)c(-c2ccccc2)c(-c2ccc(F)cc2)n1CC[C@@H](O)C[C@@H](O)CC(=O)O` [Atorvastatin] yielded an EC50 viability of 3.75 µM. Besides, the drug sensitivity score with DLD1 NRF2-WT [6] is 2.5.
Consider `CCN(CC)Cc1ccc2cc(COC(=O)Nc3ccc(C(=O)NO)cc3)ccc2c1` [Givinostat], for which the drug sensitivity score with DLD1 NRF2-WT [1] was 1.6; with DLD1 NRF2-GOF [2], 0. In addition, the values for the TC50 cytotoxicity in the assay on DLD1 NRF2-WT [3] and in the assay with DLD1 NRF2-GOF [4] were 0.344 µM and greater than 1 µM, respectively.
On to `O=C(O)CCCCC(CCSCc1ccccc1)SCc1ccccc1` (centres undefined) [CPI-613], for which the drug sensitivity score with DLD1 NRF2-WT [1] and with DLD1 NRF2-GOF [2] was 0 throughout. For the same compound, the TC50 cytotoxicity with DLD1 NRF2-WT [3] and in the assay on DLD1 NRF2-GOF [4] was greater than 10 µM each time.
As to `NS(=O)(=O)OC[C@@H]1C[C@@H](n2ccc3c(N[C@H]4CCc5ccccc54)ncnc32)C[C@@H]1O` [Pevonedistat], the drug sensitivity score with DLD1 NRF2-WT [1] and with DLD1 NRF2-GOF [2] was 0 in each case. For the same compound, the TC50 cytotoxicity with DLD1 NRF2-WT [3] and in the assay on DLD1 NRF2-GOF [4] was greater than 10 µM throughout.
As to `Nc1nc(OCc2cc(Br)cs2)c2[nH]cnc2n1` [Lomeguatrib], the drug sensitivity score in the assay with DLD1 NRF2-WT [1] and with DLD1 NRF2-GOF [2] was 0 each time. The TC50 cytotoxicity with DLD1 NRF2-WT [3] and in the assay with DLD1 NRF2-GOF [4] was greater than 10 µM each time.
With `CCS(=O)(=O)N1CC(CC#N)(n2cc(-c3ncnc4[nH]ccc34)cn2)C1` [Baricitinib], the drug sensitivity score with DLD1 NRF2-WT [1] and with DLD1 NRF2-GOF [2] was 0 throughout. The TC50 cytotoxicity in the assay with DLD1 NRF2-WT [3] and in the assay on DLD1 NRF2-GOF [4] was greater than 2.5 µM in each case.
The compound `Cn1c(Nc2ccc(C(F)(F)F)cc2)nc2cc(Oc3ccnc(-c4ncc(C(F)(F)F)[nH]4)c3)ccc21` [NVP-RAF265] showed an EC50 viability with DLD1 NRF2-WT [5] of 0.191 µM. Further, the drug sensitivity score in the assay on DLD1 NRF2-WT [6] is 3.2.
As for `Cc1cc(C(C)Nc2ccccc2)c2nc(N3CCOCC3)cc(=O)n2c1` (centres undefined) [TGX-221], the drug sensitivity score in the assay with DLD1 NRF2-WT [1] and in the assay with DLD1 NRF2-GOF [2] was 0 in each case. The TC50 cytotoxicity in the assay with DLD1 NRF2-WT [3] and in the assay with DLD1 NRF2-GOF [4] was greater than 10 µM throughout.
The compound `C[C@@H](Oc1cc(-c2cnn(C3CCNCC3)c2)cnc1N)c1c(Cl)ccc(F)c1Cl` [Crizotinib] yielded an EC50 viability with DLD1 NRF2-WT [5] greater than 1 µM. Further, the drug sensitivity score in the assay on DLD1 NRF2-WT [6] is 0.
Take `Cc1c(C(=O)Nc2ccc(N3C[C@@H](C)O[C@@H](C)C3)nc2)cccc1-c1ccc(OC(F)(F)F)cc1` [Sonidegib]: the drug sensitivity score in the assay with DLD1 NRF2-WT [1] and in the assay with DLD1 NRF2-GOF [2] was 0 throughout. For the same compound, the TC50 cytotoxicity in the assay with DLD1 NRF2-WT [3] and in the assay on DLD1 NRF2-GOF [4] was greater than 10 µM each time.
For `Cn1cc(-c2ccc(F)c(C(F)(F)F)c2)nc1C1CCN(c2ncnc3[nH]ncc23)CC1`, the drug sensitivity score with DLD1 NRF2-WT [1] and in the assay on DLD1 NRF2-GOF [2] was 0 in each case. Also, the TC50 cytotoxicity in the assay with DLD1 NRF2-WT [3] and with DLD1 NRF2-GOF [4] was greater than 10 µM in each case.
For `COCCNCc1ccc(-c2cc3nccc(Oc4ccc(NC(=S)NC(=O)Cc5ccc(F)cc5)cc4F)c3s2)nc1` [Glesatinib], the drug sensitivity score in the assay with DLD1 NRF2-WT [1] and in the assay with DLD1 NRF2-GOF [2] was 0 throughout. Moreover, the TC50 cytotoxicity in the assay with DLD1 NRF2-WT [3] and in the assay with DLD1 NRF2-GOF [4] was greater than 2.5 µM each time.
Regarding `C[C@H]1CNCCCN1S(=O)(=O)c1cccc2cncc(F)c12` [Ripasudil], the drug sensitivity score with DLD1 NRF2-WT [1] and in the assay on DLD1 NRF2-GOF [2] was 0 throughout. Moreover, the TC50 cytotoxicity with DLD1 NRF2-WT [3] and in the assay on DLD1 NRF2-GOF [4] was greater than 10 µM each time.
`Cc1cc(-c2ncc(CC(=O)Nc3ccc(-c4cnccn4)cn3)cc2C)ccn1` [NVP-LGK974]: the drug sensitivity score in the assay with DLD1 NRF2-WT [1] and in the assay on DLD1 NRF2-GOF [2] was 0 in each case. Also, the TC50 cytotoxicity in the assay on DLD1 NRF2-WT [3] and in the assay on DLD1 NRF2-GOF [4] was greater than 10 µM each time.
As to `CN(C)CCCOc1ccc(-c2ccc3ncc4c(c3c2)n(C2CCOCC2)c(=O)n4C)cn1` [AZD0156], the drug sensitivity score with DLD1 NRF2-WT [1] and in the assay with DLD1 NRF2-GOF [2] was 0 throughout. The TC50 cytotoxicity with DLD1 NRF2-WT [3] and in the assay on DLD1 NRF2-GOF [4] was greater than 1 µM throughout.
Consider `O=C(O)C(=O)O.[NH-][C@@H]1CCCC[C@H]1[NH-].[Pt+2]` [Oxaliplatin], for which the EC50 viability in the assay with DLD1 NRF2-WT [5] amounted to 25.3 µM. For the same compound, in the assay with DLD1 NRF2-WT [6], the drug sensitivity score came out at 3.
In the case of `COC(=O)c1ccc2c(c1)[nH]c1ncnc(NCCCN3CCCCC3)c12` [UM729], the drug sensitivity score in the assay on DLD1 NRF2-WT [1] and with DLD1 NRF2-GOF [2] was 0 in each case. Besides, the TC50 cytotoxicity in the assay with DLD1 NRF2-WT [3] and in the assay on DLD1 NRF2-GOF [4] was greater than 10 µM each time.
